Consider ten compounds from patent publication EP0519427A2, “N-substituted-3-iodopropiolamide, production and use thereof” (priority 1991, dated 1992).

What all share (test): Fungicide activity for wood fungicide (rating of fungi growth on treated wood)
Type in all cases: cell-based
Common to all, as to settings: beech specimens dipped 3 min in fungicide solution, 4 weeks culture; rating 0 (no growth) to 3; mean of 6 specimens

Experiment [1] has as its system Gliocladium virens Miller, Gidden & Fosteb IFO 6355. As for the experimental part: (§1) This test was conducted according to Specification No.2 of Japan Wood Preserving Association, enacted in 1979 and titled "Test methods of fungicide activity for wood fungicide".
(§2) • ① Aspergillus niger van Tieghem IFO 6341 = ATCC 6275 • ② Penicillium funiculosum Thom (formerly : Penicillium luteum Zukal) IFO 6345 = ATCC 9644 • ③ Rhizopus javanicus Takeda (formerly : Rhizopus nigricans Ehrenberg S.N. 32) IFO 6354 • ④ Aureobasidium pullulans (de Bary) Arnaud IFO 6353 = IAM (H. Iizuka, F-24) • ⑤ Gliocladium virens Miller, Gidden & Fosteb IFO 6355 = ATCC 9645 (formerly : Trichoderma viride, T.I.)
(§3) The fungi ① , ② , ③ and ⑤ are classified as fungi imperfecti, and the fungus ④ as blue stain fungus.
(§4) The Culture medium comprised the potato-sap agar culture medium (specified in the Japan Industrial Standard (JIS) Z 2911- 1960) of 50 ml, put in the conical flask of 100 ml, sterilized by steam at 1.4-1.6 kgf/cm² .G (137.2-156.8 KPa) for 30 minutes.
(§5) The fungi to be used were inoculated into the culture medium specified in the previous section and were cultured at 26 ± 2 °C under the relative humidity of 70-80 % for two weeks.
(§6) The potato sap of 50 ml, sterilized, cooled to room temperature and to which dioctyl sodium sulfosuccinate, a wetting agent, was added so as to become 0.005 %, was dropped to the fully breeding fungi layer, and was agitated with a platinum spatula in such a way that the spore was torn off. The resulting liquid filtered by sterilized gauze was the spore suspension.
(§7) 3-5-1 A Petri dish measured 90-100 mm in diameter and 20 mm in height.
(§8) 3-5-2 Agar liquid (which has no nutrients) of 2 % sterilized by steam was dropped onto the Petri dish sterilized by dry heat, and then was solidified.
(§9) 3-5-3 Three mm diameter sterilized glass bars or plastic nets made of polypropylene, etc. were placed to prevent the test specimens from touching with agar directly.
(§10) 3-6-1 The type of trees for wood specimens was beech. The cross section was of grain face, and the dimension was 20 mm wide 3 mm thick and 50 mm long.
(§11) 3-6-2 Wood specimens were supplied with nutrients in such a way that they were dipped into the potato-sap (the one in the section 3-2, but agar was not added) for 3 minutes.
(§12) 3-6-3 Nutrient-supplied wood specimens, after drying at 60 °C, were used for testing immediately. They were temporarily stored at 0 °C, but they were served to tests as soon as possible.
(§13) The test specimens were of two types, treated and untreated speciments. The treated specimens referred to the one treated with fungicide. The untreated specimens were of two types, the one really untreated and the other treated with solvent only.
(§14) 3-7-2-1 Nutrients-supplied wood specimens were dried at 60 ± 2 °C, and then their weights (W₀) were measured. Test specimens of 10-20 pieces were piled up in a one liter beaker in such a way that two specimens constant space apart from each other were alternately put on the other two specimens also constant space apart from each other. On the top of the two specimens, a weight was placed. Through the test specimens thus arranged, the fungicide solution was introduced. The level of the fungicide solution was one centimeter above the top specimens. The test specimens were dipped for three minutes after the fungicide solution introduction.
(§15) After finishing dipping, the test specimens were wiped softly, and then the weights (W₁) were measured immediately. As control experiment, the same procedure as the above was done using solvent without fungicide.
(§16) 3-7-2-2 The amounts of solution pick-up and fungicide pick-up were calculated with the following equations: The amount of solution absorption: RL = W₁ - W₀ [formula] The amount of fungicide absorption: Rc = RL × fungicide concentration [formula] 3-7-2-3 Wood specimens treated were placed without contacting each other, then were air-dried for two days, and then served as the treated test specimens. […]

Experiment [2] has as its system Aspergillus niger van Tieghem IFO 6341. Here is the method:
as §1, §2, §3, §4, §5, §6, §7, §8, §9, §10, §11, §12, §13, §14, §15, §16

Experiment [3] has as its system Rhizopus javanicus Takeda IFO 6354. As for the experimental part: as §1, §2, §3, §4, §5, §6, §7, §8, §9, §10, §11, §12, §13, §14, §15, §16
Experiment [4] has as its system Aureobasidium pullulans (de Bary) Arnaud IFO 6353. Here is the method:
as §1, §2, §3, §4, §5, §6, §7, §8, §9, §10, §11, §12, §13, §14, §15, §16

In experiment [5] the test system is Penicillium funiculosum Thom IFO 6345. As for the experimental part: as §1, §2, §3, §4, §5, §6, §7, §8, §9, §10, §11, §12, §13, §14, §15, §16

Turning to `CCCCCNC(=O)C#CI` [Example 7, N-(n-Pentyl)-3-iodopropiolamide], the “Average rating value, A₅ : Gliocladium virens (IFO 6355)” value (from here on “Average rating value, A₅ ”) in experiment [1] is given as 1.8. In addition, in experiment [2], the “Average rating value, A₁ : Aspergillus Niger (IFO 6341)” value (“Average rating value, A₁ ” below) is 0.2. For the same compound, the “Average rating value, A₃ : Rhizopus javanicus (IFO 6354)” value (“Average rating value, A₃ ” below) in experiment [3] worked out at 3.0. Also, in experiment [4], the “Average rating value, A₄ : Aureobasidium pullulans (IFO 6353)” value (shortened to “Average rating value, A₄ ”) came out at 0.0. Besides, in experiment [5], the “Average rating value, A₂ : Penicillium funiculosum (IFO 6345)” value (“Average rating value, A₂ ” below) is recorded as 0.2.

Take `CCCCCCNC(=O)C#CI` [Example 8, N-(n-Hexyl)-3-iodopropiolamide]: the “Average rating value, A₅ ” value in experiment [1] is given as 0.2. For the same compound, in experiment [2], the “Average rating value, A₁ ” value was found to be 0.3. In experiment [3], the “Average rating value, A₃ ” value is 3.0. Further, the “Average rating value, A₄ ” value in experiment [4] amounted to 0.0. Also, the “Average rating value, A₂ ” value in experiment [5] came to 0.0.

With `CCCCCCCCCCNC(=O)C#CI` [Example 2, N-(n-Decyl)-3-iodopropiolamide], the “Average rating value, A₅ ” value in experiment [1] is 1.3. Besides, the “Average rating value, A₁ ” value in experiment [2] is listed as 3.0. In addition, the “Average rating value, A₃ ” value in experiment [3] is recorded as 3.0. For the same compound, the “Average rating value, A₄ ” value in experiment [4] is 0.0. Further, the “Average rating value, A₂ ” value in experiment [5] worked out at 2.0.

On to `CC(C)CNC(=O)C#CI` [Example 6, N-Isobutyl-3-iodopropiolamide], for which the “Average rating value, A₅ ” value in experiment [1] is 0.0. Also, in experiment [2], the “Average rating value, A₁ ” value turned out to be 0.0. The “Average rating value, A₃ ” value in experiment [3] was 3.0. Besides, in experiment [4], the “Average rating value, A₄ ” value was 0.0. In experiment [5], the “Average rating value, A₂ ” value is 0.0.

Take `CC(C)(C)NC(=O)C#CI` [Example 1, N-(tert-Butyl)-3-iodopropiolamide]: the “Average rating value, A₅ ” value in experiment [1] is 0.0. The “Average rating value, A₁ ” value in experiment [2] came out at 0.0. In experiment [3], the “Average rating value, A₃ ” value is given as 2.0. Besides, in experiment [4], the “Average rating value, A₄ ” value is 0.0. The “Average rating value, A₂ ” value in experiment [5] worked out at 0.0.

For the compound `CCCCCCCCNC(=O)C#CI` [Example 10, N-(n-Octyl)-3-iodopropiolamide], the “Average rating value, A₅ ” value in experiment [1] worked out at 2.2. Besides, the “Average rating value, A₁ ” value in experiment [2] turned out to be 2.7. The “Average rating value, A₃ ” value in experiment [3] came out at 3.0. In experiment [4], the “Average rating value, A₄ ” value turned out to be 0.0. Besides, the “Average rating value, A₂ ” value in experiment [5] is reported as 0.3.

For `CCC(C)NC(=O)C#CI` (centres unmarked) [Example 5, N-(sec-Butyl)-3-iodopropiolamide], the “Average rating value, A₅ ” value in experiment [1] is 1.3. Besides, the “Average rating value, A₁ ” value in experiment [2] is 0.0. Besides, the “Average rating value, A₃ ” value in experiment [3] came out at 3.0. For the same compound, in experiment [4], the “Average rating value, A₄ ” value worked out at 0.0. Further, the “Average rating value, A₂ ” value in experiment [5] is listed as 0.0.

For the compound `CCCCNC(=O)C#CI` [Example 4, N-(n-Butyl)-3-iodopropiolamide], the “Average rating value, A₅ ” value in experiment [1] was 1.0. Further, the “Average rating value, A₁ ” value in experiment [2] was determined as 0.0. Besides, the “Average rating value, A₃ ” value in experiment [3] is listed as 0.0. For the same compound, the “Average rating value, A₄ ” value in experiment [4] came to 0.0. Also, the “Average rating value, A₂ ” value in experiment [5] is given as 0.0.

In the case of `CCCCCCCNC(=O)C#CI` [Example 9, N-(n-Heptyl)-3-iodopropiolamide], the “Average rating value, A₅ ” value in experiment [1] came out at 1.5. In addition, the “Average rating value, A₁ ” value in experiment [2] was 1.7. Moreover, the “Average rating value, A₃ ” value in experiment [3] came out at 3.0. In experiment [4], the “Average rating value, A₄ ” value amounted to 0.3. In experiment [5], the “Average rating value, A₂ ” value is 1.0.

In the case of `CCCCCCCCCNC(=O)C#CI` [Example 11, N-(n-Nonyl)-3-iodopropiolamide], the “Average rating value, A₅ ” value in experiment [1] is 2.8. In experiment [2], the “Average rating value, A₁ ” value turned out to be 3.0. Further, the “Average rating value, A₃ ” value in experiment [3] is given as 3.0. The “Average rating value, A₄ ” value in experiment [4] worked out at 1.7. In experiment [5], the “Average rating value, A₂ ” value came to 1.8.
